Results on 2 compounds are retold here after patent publication US20240197726A1, “NOVEL TETRAHYDROISOQUINOLINE ALKALOID COMPOUND CONTAINING MACROCYCLE” (THE UNIVERSITY OF TOKYO, priority 2021, published 2024).

What all share (format): cell-based
Assay [1] concerns various cancer cell lines. The experiment in a line: Verification of antitumor activity, whole panel of cancer cell lines. The note with it: in words, compared with Cyanosafracin B. On the procedure: (§1) The THIQ compound containing a macrocyclic structure of the present invention was administered to various cancer cell lines, and the antitumor activity (Go value) was observed. Specifically, verification was performed according to the literature (Yamori, T.; Matsunaga, A.; Sato, S.; Yamazaki, K.; Komi, A.; Ishizu, K. et al. Cancer Res. 1999, 59, 4042) by the following procedure.
(§2) Cells were plated at an appropriate density in a 96-well plate in RPMI 1640 together with 5% fetal bovine serum, and adhered overnight. The cells were exposed to a drug for 48 hours. Then, according to the sulforhodamine B assay described by Skehan et al (Skehan P., Storeng R., Scudiero D., Monks A., McMahon J., Vistica D., Warren J. T., Bokesch H., Kenney S., Boyd M. R. J Natl. Cancer Inst, 1990, 82, 1107-1112), the cell growth rate was measured. The absorbance of the control well (C) and the test well (T) was measured at 525 nm. In addition, the time at which the drug was added was set as time 0, and the absorbance for the test well (T0) was measured. Using these measured values, the cell growth inhibitory effect (% growth=PG) was calculated by the following formula at each concentration of the drug.
(§3) (T<T0): PG=100×[(T−T0)/T]
(§4) The PG values determined above for each cell line were plotted against the concentration (logarithm) on a semi-logarithmic graph, and summarized for each visceral cancer. Concentrations at which the dose-response curve of each cell line crossed the horizontal line of PG=50%, 0%, or −50% were calculated. These concentrations were defined as Log GI50, Log TGI, and Log LC50. Actually, using two data points of the drug concentration before and after crossing each horizontal line, the drug concentration (logarithmic value) at the intersection of the straight line connecting the two points and the horizontal line for each PG was calculated.

Assay [2] relates to SF-539 central nervous system cancer cells. Briefly: antitumor activity, sulforhodamine B cell growth assay, SF-539. Conditions: SF-539, drug exposure 48 hours; read-out: GI50 value: 50% growth inhibitory concentration. The method, boiled down:
(§5)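 Read-out is sulforhodamine B absorbance (525 nm) after a 48 h compound treatment of adherent cells grown in RPMI 1640 with 5% fetal bovine serum. Percent growth at each concentration was plotted against log concentration to derive GI50, TGI and LC50.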

Assay [3] deals with HCC2998 colorectal cancer cells. Briefly: antitumor activity, sulforhodamine B cell growth assay, HCC2998. The note with it: HCC2998, drug exposure 48 hours; read-out: GI50 value: 50% growth inhibitory concentration. The method, boiled down:
as §5

The test system of assay [4] is DU-145 prostate cancer cells. Briefly: antitumor activity, sulforhodamine B cell growth assay, DU-145. Conditions: DU-145, drug exposure 48 hours; read-out: GI50 value: 50% growth inhibitory concentration. Put shortly:
as §5

A further assay relates to SK-OV-3 cancer cells. Briefly: antitumor activity, sulforhodamine B cell growth assay, SK-OV-3. The note with it: SK-OV-3, drug exposure 48 hours; read-out: GI50 value: 50% growth inhibitory concentration. The method, boiled down:
as §5

Assay [5] relates to KM-12 colorectal cancer cells. Briefly: antitumor activity, sulforhodamine B cell growth assay, KM-12. Conditions: KM-12, drug exposure 48 hours; read-out: GI50 value: 50% growth inhibitory concentration. Put shortly: as §5
The test system of another assay is OVCAR-8 cancer cells. Briefly: antitumor activity, sulforhodamine B cell growth assay, OVCAR-8. The note with it: OVCAR-8, drug exposure 48 hours; read-out: GI50 value: 50% growth inhibitory concentration. On the procedure: as §1, §2, §3, §4
The subject of another assay is ACHN kidney cancer cells. The experiment in a line: antitumor activity, sulforhodamine B cell growth assay, ACHN. Conditions: ACHN, drug exposure 48 hours; read-out: GI50 value: 50% growth inhibitory concentration. The method, boiled down:
as §5

For assay [6], the system named is HBC-5 breast cancer cells. The experiment in a line: antitumor activity, sulforhodamine B cell growth assay, HBC-5. The note with it: HBC-5, drug exposure 48 hours; read-out: GI50 value: 50% growth inhibitory concentration. The method, boiled down:
as §5

The test system of assay [7] is BSY-1 breast cancer cells. Briefly: antitumor activity, sulforhodamine B cell growth assay, BSY-1. The note with it: BSY-1, drug exposure 48 hours; read-out: GI50 value: 50% growth inhibitory concentration. Put shortly: as §5
For assay [8], the system named is MKN-B gastric cancer cells. The experiment in a line: antitumor activity, sulforhodamine B cell growth assay, MKN-B. The note with it: MKN-B, drug exposure 48 hours; read-out: GI50 value: 50% growth inhibitory concentration. Put shortly:
as §5

Assay [9] concerns U251 central nervous system cancer cells. Briefly: antitumor activity, sulforhodamine B cell growth assay, U251. The note with it: U251, drug exposure 48 hours; read-out: GI50 value: 50% growth inhibitory concentration. Put shortly:
as §5

In a further assay the test system is DMS273 lung cancer cells. Briefly: antitumor activity, sulforhodamine B cell growth assay, DMS273. The note with it: DMS273, drug exposure 48 hours; read-out: GI50 value: 50% growth inhibitory concentration. The method, boiled down:
as §5

The next assay concerns A549 lung cancer cells. Briefly: antitumor activity, sulforhodamine B cell growth assay, A549. Conditions: A549, drug exposure 48 hours; read-out: GI50 value: 50% growth inhibitory concentration. Put shortly:
as §5

Assay [10] concerns St-4 gastric cancer cells. The experiment in a line: antitumor activity, sulforhodamine B cell growth assay, St-4. The note with it: St-4 (SI-4 in Tables 2-11), drug exposure 48 hours; read-out: GI50 value: 50% growth inhibitory concentration. The method, boiled down:
as §5

Assay [11] concerns MCF-7 breast cancer cells. The experiment in a line: antitumor activity, sulforhodamine B cell growth assay, MCF-7. Conditions: MCF-7, drug exposure 48 hours; read-out: GI50 value: 50% growth inhibitory concentration. On the procedure: as §1, §2, §3, §4
Assay [12] concerns HCT-15 colorectal cancer cells. The experiment in a line: antitumor activity, sulforhodamine B cell growth assay, HCT-15. Conditions: HCT-15, drug exposure 48 hours; read-out: GI50 value: 50% growth inhibitory concentration. Put shortly:
as §5

For assay [13], the system named is NCI-H226 lung cancer cells. The experiment in a line: antitumor activity, sulforhodamine B cell growth assay, NCI-H226. Conditions: NCI-H226, drug exposure 48 hours; read-out: GI50 value: 50% growth inhibitory concentration. The method, boiled down: as §5
Assay [14] has as its system SNB-75 central nervous system cancer cells. Briefly: antitumor activity, sulforhodamine B cell growth assay, SNB-75. The note with it: SNB-75, drug exposure 48 hours; read-out: GI50 value: 50% growth inhibitory concentration. The method, boiled down: as §5
The next assay has as its system OVCAR-3 cancer cells. Briefly: antitumor activity, sulforhodamine B cell growth assay, OVCAR-3. The note with it: OVCAR-3, drug exposure 48 hours; read-out: GI50 value: 50% growth inhibitory concentration. As for the experimental part: as §1, §2, §3, §4
Assay [15] deals with MKN-A gastric cancer cells. Briefly: antitumor activity, sulforhodamine B cell growth assay, MKN-A. Conditions: MKN-A, drug exposure 48 hours; read-out: GI50 value: 50% growth inhibitory concentration. Put shortly:
as §5

For assay [16], the system named is NCI-H460 lung cancer cells. Briefly: antitumor activity, sulforhodamine B cell growth assay, NCI-H460. The note with it: NCI-H460, drug exposure 48 hours; read-out: GI50 value: 50% growth inhibitory concentration. The method, boiled down: as §5

Bounds are passed on as bounds.

In the case of `C=C1/C=C/CN[C@@H](C)C(=O)NCC2c3c(c(c(C)c4c3OCO4)OC1)C[C@H]1[C@H]3c4c(cc(C)c(OC)c4O)C[C@@H]([C@H](C#N)N21)N3C` [Compound 33], the antitumor activity result in assay [1] is reported as “better antitumor activity than Cyanosafracin B”. In addition, the GI50 in assay [2] was determined as 0.046 µM; in [3], 0.14 µM; in [4], 0.37 µM; in the assay with SK-OV-3 cancer cells, 0.5 µM; in assay [5], 0.11 µM; with OVCAR-8 cancer cells, 0.18 µM. Moreover, the GI50 in the assay on ACHN kidney cancer cells stood at 0.26 µM; in assay [6], 0.04 µM; in assay [7], 0.018 µM; in [8], 0.22 µM; in assay [9], 0.055 µM; in the assay on DMS273 lung cancer cells it was 0.14 µM. Besides, the GI50 was determined as 0.36 µM with A549 lung cancer cells; 0.27 µM in assay [10]; 0.026 µM in assay [11]; 0.4 µM in assay [12]; 0.26 µM in assay [13]; 0.096 µM in assay [14]. Further, the GI50 in the assay on OVCAR-3 cancer cells came to 0.07 µM; in assay [15], 0.33 µM; in assay [16], 0.26 µM.
Consider `COc1c(C)cc2c(c1O)C1C3Cc4c5c(C)c6c(c4C(CNC(=O)C(C)NCC=CCO5)N3C(C#N)C(C2)N1C)OCO6` (centres unmarked) [Compound 42], for which, in assay [1], the antitumor activity result is “better antitumor activity than Cyanosafracin B”. In addition, the GI50 in [2] stood at 0.017 µM; in assay [3] it was 0.018 µM; in assay [4] it was 0.058 µM; in the assay on SK-OV-3 cancer cells, 0.049 µM; in [5], 0.019 µM; in the assay on OVCAR-8 cancer cells it was 0.034 µM. In addition, the GI50 in the assay with ACHN kidney cancer cells was 0.042 µM; in [6] it was 0.017 µM; in assay [7] it was below 0.01 µM; in assay [8], 0.025 µM; in assay [9], 0.013 µM; with DMS273 lung cancer cells it was 0.016 µM. Also, the GI50 in the assay with A549 lung cancer cells was 0.11 µM; in assay [10], 0.037 µM; in [11] it was below 0.01 µM; in [12], 0.047 µM; in assay [13] it was 0.03 µM; in [14], below 0.01 µM. The GI50 with OVCAR-3 cancer cells came to 0.015 µM; in [15], 0.036 µM; in [16] it was 0.022 µM.
